In patent US8574551B2, “Compositions useful for reducing nephrotoxicity and methods of use thereof” (Verrow Pharmaceuticals, Inc., priority 2005, dated 2013):

Key:
Assay type in all cases: in vivo, C57BL/6 mice
[1] = system: kidney; test: Doxorubicin induced nephrotoxicity model in mice; settings: doxorubicin 10 mg/kg single iv dose; 72 hours
Experimental: Female C57BL/6 mice were injected intravenously with a single dose of (10 mg/kg) doxorubicin. The mice were sacrificed after 72 hours. The development of glumerular and tubulointerstitial injury after doxorubicin and doxorubicin+Captisol was evaluated by means of renal histology. Paraffin sections of […] were cut and stained with H&E and periodic acid Schiff (PAS). They were examined by light microscopy and scored in a blinded fashion. Thirty glomeruli and neighboring tubules were scored at superficial cortes (near the surface of the capsule). One hundred glomeruli and neighboring tubules were scored at the level of deep renal cortex and around the outer strips of the outer medulla.

[2] = system: kidney; test: Acyclovir induced nephrotoxicity in mildly renal compromised mice; settings: acyclovir 10 or 30 mg/kg IV, 10 consecutive days, alone
Experimental: These doses however, produce nephrotoxicity in humans. Therefore, the nephroprotective effects of sulfobutylether β cyclodextrin (SBEβCD) in mildly renal compromised mice was evaluated. […] In order to produce mildly renal compromised mice, animals were injected with L-NAME (L arginine methyl ester) 10 mg/kg and Indomethacin 10 mg/kg, ip., 15-20 min before the first injection of acyclovir. Female C57BL/6 mice were administered bolus intravenous injections for ten consecutive days with a dose of 10 mg/kg acyclovir (N=3) or acyclovir 10 mg/kg+SBEβCD 173 mg/kg (N=3), or 30 mg/kg acyclovir (N=3) or acyclovir 30 mg/kg+SBEβCD 520 mg/kg (N=3) (Table 6). In both cases the acyclovir to SBEβCD molar ratio was 1:2. Animals were sacrificed after 48 hrs after the last injection. Renal pathology was assessed by evaluating H&E sections of the kidney under a light microscope. Paraffin sections of […] were cut and stained with H&E and periodic acid Schiff (PAS). They were examined by light microscopy and scored in a blinded fashion. Five arbitratary fields at 40× magnification in each sections was assessed according to the below mentioned parameters and scored according to the criteria mentioned.

[3] = system: kidney; test: Gentamicin induced nephrotoxicity in mice; settings: 10 consecutive days
Experimental: These doses however, produce nephrotoxicity in humans. Therefore, nephroprotective effects of SBE-βCD in mildly renal compromised mice was evaluated. […] In order to produce mildly renal compromised mice, animals were injected with L-NAME (L arginine methyl ester) 10 mg/kg and Indomethacin 10 mg/kg, ip., 15-20 min before the first injection of gentamicin. Female C57BL/6 mice were administered bolus intravenous injections for ten consecutive days with a dose of 4.0 mg/kg gentamicin (N=4) or gentamicin 4.0 mg/kg+SBE-βCD 19.2 mg/kg (N=4), or gentamicin 4.0 mg/kg+SBE-βCD 38.4 mg/kg (N=4). Gentamicin to SBE-βCD molar ratios were 1:1 and 1:2 respectively. Animals were sacrificed after 48 hrs after the last injection. Renal pathology was assessed by evaluating H&E sections of the kidney under light microscope.
Paraffin sections of […] were cut and stained with H&E and periodic acid Schiff (PAS). They were examined by light microscopy and scored in a blinded fashion. Five arbitrary fields at 40× magnification in each sections was assessed for the below mentioned parameters and scored according to the criteria mentioned

[4] = system: kidney; test: Iohexyl induced nephrotoxicity in mildly renal compromised mice; settings: iohexyl 1.5 g/kg iv once, alone, 24 hrs
Experimental: Iohexyl is nephrotoxic in humans and can produce acute renal failure in renally compromised patients. Therefore, the nephroprotective effects of sulfobutyl ethyl β cyclodextrin (SBE-βCD) in a contrast agent induced nephropathy model involving mildly renal compromised mice was evaluated. […] In order to produce mildly renal compromised mice, female C57BL/6 mice were injected with nitric oxide synthase inhibitor L-NAME (L arginine methyl ester) 10 mg/kg and prostaglandin synthesis inhibitor Indomethacin 10 mg/kg, ip., 15-20 min before injecting of iohexyl. The mice were administered a single bolus intravenous injections of iohexyl 1.5 g/kg (N=4) or iohexyl 1.5 g/kg+SBE-βCD 1.3 g/kg (N=4), or iohexyl 1.5 g/kg+SBE-βCD […] administered 30 minutes before, concurrently, and 30 min after iohexyl injection (N=4) (Table 7). In both cases, the iohexyl to SBE-βCD molar ratio was 1:0.1 during the concurrent dose. […] Renal pathology was assessed by evaluating H&E sections of the kidney under a light microscope.
Paraffin sections of […] were cut and stained with H&E and periodic acid Schiff (PAS). They were examined by light microscopy and scored in a blinded fashion. At 40× magnification, five arbitrary fields in each section was assessed for the below mentioned parameters and scored blindly according to the criteria mentioned. A total of 4 sections were analyzed per kidney.

COc1cccc2c1C(=O)c1c(O)c3c(c(O)c1C2=O)C[C@@](O)(C(=O)CO)C[C@@H]3O[C@H]1C[C@H](N)[C@H](O)[C@H](C)O1 [doxorubicin]
renal histology [1]: tubular casts, abundant dilated tubules and moderate loss of brush border in the some proximal tubules

Nc1nc2c(ncn2COCCO)c(=O)[nH]1 [Acyclovir, acyclovir]
renal histology [2]: moderate to severe signs of tubulopathy

gentamicin
renal histology ([3]; healthy mice, gentamicin 4 mg/kg intravenously): no noticeable changes in the tubular cells in the healthy kidney | renal histology ([3]; mild renal compromised mice (L-NAME + Indomethacin), gentamicin 4 mg/kg iv): extensive tubular vacuolization and necrosis in the renal cortex

CC(=O)N(CC(O)CO)c1c(I)c(C(=O)NCC(O)CO)c(I)c(C(=O)NCC(O)CO)c1I (centres unmarked) [Iohexyl, iohexyl]
renal histology [4]: moderate to severe signs of tubulopathy
